Reference: US10039759B2, “Quinolines as FGFR kinase modulators” (priority 2011, dated 2018)
Where two headings read alike, the source gives them in different places.

Key:
[1] = target: T1, Ba/F3-KDR-transfected cells (Homo sapiens, UniProt P35968, cells depend on it, form not given); assay: Ba/F3-KDR (minus IL3 or plus IL3) cellular proliferation assay, Alamar Blue; assay type: cell-based; details: minus IL3; 24 hours, Alamar Blue
T1 construct: BAF3-KDR (MIN IL3 Alamar Blue pIC50); other: minus IL3; 24 hours, Alamar Blue
Experimental: Ba/F3-KDR (Minus IL3 or Plus IL3) (Cellular Proliferation Assay)
(§1) In a 384 well plate, 100 nl of compound dilution in DMSO was sprayed before adding 50 μl cell culture medium (phenol red free RPMI-1640, 10% FBS, 2 mM L-Glutamine and 50 μg/ml Gentamycin) containing 20000 cells per well of Ba/F3-KDR-transfected cells. Cells were put in an incubator at 37° C. and 5% CO2. After 24 hours, 10 μl of Alamar Blue solution (0.5 mM K3Fe(CN)6, 0.5 mM K4Fe(CN)6, 0.15 mM Resazurin and 100 mM Phosphate Buffer) was added to the wells, incubated for 4 hours at 37° C. and 5% CO2 before RFU's (Relative Fluorescence Units) (ex. 540 nm., em. 590 nm.) were measured in a fluorescence plate reader.
(§2) In this assay, the inhibitory effect of different compound concentrations (range 10 μM to 0.1 nM) was determined and used to calculate an IC50 (M) and pIC50 (−log IC50) value. As a counterscreen the same experiment was performed in the presence of 10 ng/ml murine IL3.

[2] = target: Ba/F3-FGFR4-transfected cells (Homo sapiens, UniProt P22455); assay: Ba/F3-FGFR4 cellular proliferation assay, Alamar Blue; assay type: cell-based; details: 24 hours
Experimental: Ba/F3-FGFR4 (Cellular Proliferation Assay)
as §1, with “Ba/F3-FGFR4-transfected” for “Ba/F3-KDR-transfected”
In this assay, the inhibitory effect of different compound concentrations (range 10 μM to 0.1 nM) was determined and used to calculate an IC50 (M) and pIC50 (−log IC50) value.

FGFR2 (h) = FGFR2 (h) (Homo sapiens, UniProt P21802); assay: FGFR2 (enzymatic assay), TR-FRET; assay type: biochemical; details: 60 min, pIC50 = -log IC50 (M), average if tested multiple times
FGFR4 (h) = FGFR4 (h) (Homo sapiens, UniProt P22455); assay: FGFR4 (enzymatic assay), TR-FRET; assay type: biochemical; details: FGFR 4 pIC50, 5 μM ATP, 60 min; pIC50 = -log IC50 (M); average if tested multiple times
[3] = target: T2, Ba/F3-FGFR3-transfected cells (Homo sapiens, UniProt P22607, cells depend on it, form not given); assay: Ba/F3-FGFR3 (minus IL3 or plus IL3) cellular proliferation assay, Alamar Blue; assay type: cell-based; details: minus IL3; 24 hours, Alamar Blue
T2 construct: BAF3-FGFR3 (MIN IL3 Alamar Blue- pIC50); other: minus IL3; 24 hours, Alamar Blue
Experimental: Ba/F3-FGFR3 (Minus IL3 or Plus IL3) (Cellular Proliferation Assay)
as §1, with “Ba/F3-FGFR3-transfected” for “Ba/F3-KDR-transfected”
as §2

[4] = 0.4 μM ATP, read-out: FGFR 2 pIC50 (converted)

Ba/F3-FGFR4-transfected cells, sequence (P22455 whole entry, change not shown): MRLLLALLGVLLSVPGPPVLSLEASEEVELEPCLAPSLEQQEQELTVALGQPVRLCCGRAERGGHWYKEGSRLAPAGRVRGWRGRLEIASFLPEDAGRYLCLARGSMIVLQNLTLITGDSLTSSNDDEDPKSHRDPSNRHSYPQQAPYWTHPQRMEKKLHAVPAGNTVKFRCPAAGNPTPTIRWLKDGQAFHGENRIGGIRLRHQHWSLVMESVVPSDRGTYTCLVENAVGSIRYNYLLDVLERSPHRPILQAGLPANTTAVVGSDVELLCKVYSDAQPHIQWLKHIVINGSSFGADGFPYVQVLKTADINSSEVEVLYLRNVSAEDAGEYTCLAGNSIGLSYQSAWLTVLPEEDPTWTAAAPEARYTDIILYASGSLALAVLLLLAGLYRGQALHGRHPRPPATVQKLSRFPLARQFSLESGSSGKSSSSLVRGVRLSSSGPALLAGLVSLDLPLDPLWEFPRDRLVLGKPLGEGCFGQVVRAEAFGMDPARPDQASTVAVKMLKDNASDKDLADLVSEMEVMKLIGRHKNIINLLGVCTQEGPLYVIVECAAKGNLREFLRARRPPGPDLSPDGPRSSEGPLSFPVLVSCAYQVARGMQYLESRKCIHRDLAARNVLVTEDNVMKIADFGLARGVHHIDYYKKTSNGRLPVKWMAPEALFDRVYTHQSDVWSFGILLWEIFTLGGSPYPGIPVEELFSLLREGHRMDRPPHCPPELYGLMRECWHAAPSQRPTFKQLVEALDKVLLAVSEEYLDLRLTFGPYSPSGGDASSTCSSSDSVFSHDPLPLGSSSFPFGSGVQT
T1 sequence (P35968 whole entry, change not shown): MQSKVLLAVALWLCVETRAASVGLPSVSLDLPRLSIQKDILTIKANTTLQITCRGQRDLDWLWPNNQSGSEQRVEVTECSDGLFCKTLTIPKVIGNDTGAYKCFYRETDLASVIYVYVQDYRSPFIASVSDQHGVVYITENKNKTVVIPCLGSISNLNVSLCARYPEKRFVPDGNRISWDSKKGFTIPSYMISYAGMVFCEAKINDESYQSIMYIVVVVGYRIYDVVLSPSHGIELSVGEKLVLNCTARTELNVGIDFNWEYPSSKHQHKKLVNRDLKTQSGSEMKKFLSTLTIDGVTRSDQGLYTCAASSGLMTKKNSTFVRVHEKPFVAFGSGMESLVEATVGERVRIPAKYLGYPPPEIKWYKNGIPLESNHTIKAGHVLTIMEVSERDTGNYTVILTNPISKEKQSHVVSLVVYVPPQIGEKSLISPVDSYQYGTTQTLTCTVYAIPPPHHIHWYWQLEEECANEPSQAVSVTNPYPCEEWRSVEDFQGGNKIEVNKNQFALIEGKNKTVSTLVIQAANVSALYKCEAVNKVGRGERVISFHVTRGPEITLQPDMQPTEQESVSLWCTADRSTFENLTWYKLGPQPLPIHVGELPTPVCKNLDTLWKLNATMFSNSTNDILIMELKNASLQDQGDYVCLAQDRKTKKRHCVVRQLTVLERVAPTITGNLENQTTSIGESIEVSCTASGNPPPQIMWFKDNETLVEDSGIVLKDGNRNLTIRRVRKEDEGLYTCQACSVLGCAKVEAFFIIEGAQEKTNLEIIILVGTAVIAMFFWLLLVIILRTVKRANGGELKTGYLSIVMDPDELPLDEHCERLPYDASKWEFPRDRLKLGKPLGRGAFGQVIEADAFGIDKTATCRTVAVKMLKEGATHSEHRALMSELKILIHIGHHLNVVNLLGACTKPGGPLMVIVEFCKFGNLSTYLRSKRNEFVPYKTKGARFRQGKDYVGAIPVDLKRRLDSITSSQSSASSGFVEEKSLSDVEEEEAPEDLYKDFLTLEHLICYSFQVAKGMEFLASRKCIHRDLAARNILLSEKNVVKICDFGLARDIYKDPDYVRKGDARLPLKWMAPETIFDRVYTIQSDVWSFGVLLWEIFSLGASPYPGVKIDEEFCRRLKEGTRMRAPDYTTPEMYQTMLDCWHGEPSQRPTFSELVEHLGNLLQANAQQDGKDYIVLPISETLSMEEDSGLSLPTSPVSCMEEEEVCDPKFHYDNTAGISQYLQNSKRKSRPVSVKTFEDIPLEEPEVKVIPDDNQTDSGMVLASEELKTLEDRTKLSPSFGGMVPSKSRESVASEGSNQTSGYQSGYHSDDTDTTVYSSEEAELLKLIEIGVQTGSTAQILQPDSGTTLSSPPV
FGFR2 (h), sequence (P21802 22-821): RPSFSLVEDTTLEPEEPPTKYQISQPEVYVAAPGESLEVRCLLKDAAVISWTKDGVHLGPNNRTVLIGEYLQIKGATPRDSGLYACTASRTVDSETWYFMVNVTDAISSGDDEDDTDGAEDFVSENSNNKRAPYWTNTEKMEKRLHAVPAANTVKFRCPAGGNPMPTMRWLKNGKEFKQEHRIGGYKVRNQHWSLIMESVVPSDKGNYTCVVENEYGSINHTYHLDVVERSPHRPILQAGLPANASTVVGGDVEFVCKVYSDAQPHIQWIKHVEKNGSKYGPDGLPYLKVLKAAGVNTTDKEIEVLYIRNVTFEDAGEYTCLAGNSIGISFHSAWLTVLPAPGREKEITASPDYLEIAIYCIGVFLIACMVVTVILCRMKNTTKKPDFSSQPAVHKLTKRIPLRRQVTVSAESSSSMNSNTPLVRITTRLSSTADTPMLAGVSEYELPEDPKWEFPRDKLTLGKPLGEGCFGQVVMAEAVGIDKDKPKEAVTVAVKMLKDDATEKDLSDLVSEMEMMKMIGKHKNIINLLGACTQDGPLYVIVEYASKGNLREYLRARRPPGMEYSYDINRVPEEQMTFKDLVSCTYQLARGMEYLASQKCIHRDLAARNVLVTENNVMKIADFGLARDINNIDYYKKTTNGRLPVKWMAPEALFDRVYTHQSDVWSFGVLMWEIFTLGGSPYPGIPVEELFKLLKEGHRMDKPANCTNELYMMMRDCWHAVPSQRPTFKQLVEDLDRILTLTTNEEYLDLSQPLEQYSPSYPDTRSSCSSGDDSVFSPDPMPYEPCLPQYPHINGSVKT
FGFR4 (h), sequence (P22455 22-802): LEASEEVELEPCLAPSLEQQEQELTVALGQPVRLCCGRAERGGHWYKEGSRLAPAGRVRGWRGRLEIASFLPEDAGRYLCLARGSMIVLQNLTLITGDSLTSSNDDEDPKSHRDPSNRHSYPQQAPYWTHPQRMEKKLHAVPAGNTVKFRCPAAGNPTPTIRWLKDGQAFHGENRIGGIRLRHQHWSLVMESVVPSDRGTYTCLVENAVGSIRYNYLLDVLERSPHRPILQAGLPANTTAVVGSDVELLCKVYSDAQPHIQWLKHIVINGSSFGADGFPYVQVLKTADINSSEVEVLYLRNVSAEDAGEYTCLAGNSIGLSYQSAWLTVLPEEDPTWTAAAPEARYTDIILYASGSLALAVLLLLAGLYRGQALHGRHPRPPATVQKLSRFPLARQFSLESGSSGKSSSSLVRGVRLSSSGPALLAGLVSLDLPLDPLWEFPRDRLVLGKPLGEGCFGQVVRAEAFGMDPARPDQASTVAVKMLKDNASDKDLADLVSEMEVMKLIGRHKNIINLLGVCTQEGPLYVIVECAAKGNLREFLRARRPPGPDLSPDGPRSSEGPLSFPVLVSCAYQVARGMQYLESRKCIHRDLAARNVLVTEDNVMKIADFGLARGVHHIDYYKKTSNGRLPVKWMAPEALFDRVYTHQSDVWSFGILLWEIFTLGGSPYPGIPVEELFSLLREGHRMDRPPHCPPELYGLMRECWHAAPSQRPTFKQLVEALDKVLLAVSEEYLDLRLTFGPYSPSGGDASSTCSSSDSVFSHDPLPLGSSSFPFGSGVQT
T2 sequence (P22607 whole entry, change not shown): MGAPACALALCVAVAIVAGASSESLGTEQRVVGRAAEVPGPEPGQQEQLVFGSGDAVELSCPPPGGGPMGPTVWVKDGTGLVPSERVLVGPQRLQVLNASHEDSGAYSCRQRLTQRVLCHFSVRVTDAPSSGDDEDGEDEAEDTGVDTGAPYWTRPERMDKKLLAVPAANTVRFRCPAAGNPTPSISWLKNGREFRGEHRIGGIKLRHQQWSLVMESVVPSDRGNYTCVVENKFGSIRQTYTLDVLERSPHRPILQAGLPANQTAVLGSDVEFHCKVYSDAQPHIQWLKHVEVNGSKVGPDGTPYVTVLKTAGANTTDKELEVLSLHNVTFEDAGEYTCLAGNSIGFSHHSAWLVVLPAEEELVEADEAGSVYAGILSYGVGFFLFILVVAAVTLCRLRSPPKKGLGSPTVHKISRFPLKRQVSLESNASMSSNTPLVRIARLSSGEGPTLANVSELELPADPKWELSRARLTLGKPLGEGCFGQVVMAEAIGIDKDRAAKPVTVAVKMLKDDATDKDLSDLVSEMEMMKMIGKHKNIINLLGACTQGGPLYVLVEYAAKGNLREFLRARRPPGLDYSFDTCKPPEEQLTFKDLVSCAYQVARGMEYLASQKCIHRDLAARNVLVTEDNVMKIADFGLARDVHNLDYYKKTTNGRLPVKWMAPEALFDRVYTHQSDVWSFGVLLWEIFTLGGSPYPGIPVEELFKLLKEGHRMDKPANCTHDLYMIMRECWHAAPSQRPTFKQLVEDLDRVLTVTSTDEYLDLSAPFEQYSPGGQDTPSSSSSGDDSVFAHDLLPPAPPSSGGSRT

Structure (SMILES)	BAF3-KDR (MIN IL3 Alamar Blue pIC50) [1]	BAF3-FGFR 4 (pIC50) [2]	IC50 (FGFR2 (h); [4]) [M]	IC50 (FGFR4 (h)) [M]	BAF3-FGFR3 (MIN IL3 Alamar Blue- pIC50) [3]	IC50 (FGFR2 (h); FGFR 2 pIC50, 0.4 μM ATP) [M]
COc1cc(OC)cc(N(CC(O)C(F)(F)F)c2ccc3ncc(-c4cnn(C)c4)cc3c2)c1 (single isomer, unassigned) [Compound 24]	5.05	6.6	4.9e-09	7.94e-09	~7.67	
COc1cc(OC)cc(N(CC(O)C(F)(F)F)c2ccc3ncc(-c4cnn(C)c4)cc3c2)c1 (single isomer, unassigned) [Compound 25]	<5	6.07	1.95e-08	6.03e-08	6.76	
COc1cc(OC)cc(N(CCNC(C)C)c2ccc3ncc(-c4cnn(C)c4)cc3c2)c1 [Compound 1]	5.635	7.19	4.95e-09	1.38e-08	7.555	
COc1cc(OC)c(F)c(N(CCNC(C)C)c2ccc3ncc(-c4cnn(C)c4)cc3c2)c1 [Compound 2]	6.18	7.83	3.24e-09	3.98e-09	7.86	
COc1cc(OC)cc(N(CCO)c2ccc3ncc(-c4cnn(C)c4)cc3c2)c1 [Compound 3]	5.65	6.11	1.48e-08	3.8e-08	6.33	
COc1cc(OC)cc(N(CCCO)c2ccc3ncc(-c4cnn(C)c4)cc3c2)c1 [Compound 4]	5.45	5.87	1.35e-08	3.09e-08	6.17	
COc1cc(OC)cc(N(CCCNCC(F)(F)F)c2ccc3ncc(-c4cnn(C)c4)cc3c2)c1 [Compound 5]	5.18	5.5	3.16e-08	9.12e-08	5.67	
C#CCN(c1cc(OC)cc(OC)c1)c1ccc2ncc(-c3cnn(C)c3)cc2c1 [Compound 6]	5.07	5.4	3.02e-08	1.51e-07	5.79	
COc1cc(OC)cc(N(CC2CCN(c3nccc(OC)n3)C2)c2ccc3ncc(-c4cnn(C)c4)cc3c2)c1 (stereo not shown) [Compound 7]	<5	<5	> 1e-06	> 1e-06	<5	
COc1cc(OC)cc(N(Cc2ncccn2)c2ccc3ncc(-c4cnn(C)c4)cc3c2)c1 [Compound 8]	<5	5.64	2e-08	1.17e-07	6.14	
COc1cc(OC)cc(N(Cc2nccn2S(=O)(=O)N(C)C)c2ccc3ncc(-c4cnn(C)c4)cc3c2)c1 [Compound 9]	<5	5.18	7.76e-09	1.45e-07	6.17	
COc1cc(OC)cc(N(CCCN2CCCC2=O)c2ccc3ncc(-c4cnn(C)c4)cc3c2)c1 [Compound 10]	5.11	5.63	1.29e-08	8.32e-08	6.2	
COc1cc(OC)cc(N(CCCN)c2ccc3ncc(-c4cnn(C)c4)cc3c2)c1 [Compound 11]	5.42	6.39	2.29e-09	2e-08	6.97	
COc1cc(OC)cc(C(O)c2ccc3ncc(-c4cnn(C)c4)cc3c2)c1 (stereo not shown) [Compound 12]	<5	<5	4.17e-07	> 9.33e-07	~5.075	
COc1cc(OC)cc(N(CCNC(C)C)c2ccc3ncc(-c4cnn(CCS(C)(=O)=O)c4)cc3c2)c1 [Compound 14]	5.45	6.7	5.25e-09	7.41e-09	~6.95	
COc1cc(OC)cc(N(CC#Cc2nccc(OC)n2)c2ccc3ncc(-c4cnn(C)c4)cc3c2)c1 [Compound 16]	<5	8.21	1.55e-08	3.72e-08	>8	
COc1cc(OC)cc(N(CC#Cc2ncccc2OC)c2ccc3ncc(-c4cnn(C)c4)cc3c2)c1 [Compound 17]	<5	6.98	1.2e-07	2.75e-07	7.63	
COc1cc(OC)cc(N(Cc2ncc[nH]2)c2ccc3ncc(-c4cnn(C)c4)cc3c2)c1 [Compound 18]	5.01	6.57	2.51e-09	4.79e-09	7.22	
COc1cc(OC)cc(N(CCCN2CCCO2)c2ccc3ncc(-c4cnn(C)c4)cc3c2)c1 [Compound 19]	5.1	5.71		6.03e-08	6.26	1.15e-08
COc1cc(OC)cc(N(CCNC(C)C)c2ccc3ncc(-c4cn[nH]c4)cc3c2)c1 [Compound 21]	5.49	6.79	2.57e-09	5.37e-09	7.57	
COc1cc(OC)cc(N(CCNC(C)C)c2ccc3ncc(-c4cnn(C5CCCCO5)c4)cc3c2)c1 (stereo not shown) [Compound 22]	5.79	~7.11	3.89e-09	4.37e-09	7.78	
COc1cc(OC)c(F)c(N(CC#Cc2ncccc2OC)c2ccc3ncc(-c4cnn(C)c4)cc3c2)c1 [Compound 26]	5.11	7.77	1.05e-08	1.26e-08	8.17	
COc1cccnc1C#CCN(c1ccc2ncc(-c3cnn(C)c3)cc2c1)c1c(F)c(OC)cc(OC)c1F [Compound 27]	5.335	8.18	5.62e-09	3.13e-09	8.22	
CNCCN(c1ccc2ncc(-c3cnn(C)c3)cc2c1)c1c(F)c(OC)cc(OC)c1F [Compound 43]	6.51	~8.02	2.45e-09	2.63e-09	~8	
COc1cc(OC)cc(N(CCCN2CCCC2CNS(=O)(=O)C(F)(F)F)c2ccc3ncc(-c4cnn(C)c4)cc3c2)c1 (stereo not shown) [Compound 47]	6.44	7.44	3.89e-09	2.19e-09	8.46	
COc1cc(OC)cc(N(CC#Cc2nccn2C)c2ccc3ncc(-c4cnn(C)c4)cc3c2)c1 [Compound 48]	5.02	7.17	1.45e-08	3.16e-08	7.62	
